Reference: patent publication US9108950B2, “1-pyrazolyl-3-(4-((2-anilinopyrimidin-4-yl)oxy)napththalen-1-yl) ureas as p38 MAP kinase inhibitors” (Respivert Ltd., priority 2011, dated 2015)

What was measured:
[1] = Physical stability on storage (TGA, XRPD, IR, DSC, appearance); assay type: physicochemical; design: key to XRD / IR: Cryst.: crystalline; ~Ref: pattern identical with reference sample; conditions: for Appearance / IR / XRD / DSC max / TGA <100° C. weight loss / TGA <180° C. weight loss: form B micronized
Protocol: Patterns were obtained on a PANalytical (Philips) X'PertPRO MPD diffractometer equipped with a Cu LFF X-ray tube (45 kV; 40 mA; Bragg-Brentano; spinner stage) and were acquired using Cu Kα radiation under the following measurement conditions: scan mode: continuous; scan range: 3 to 50° 2θ; step size: 0.02°/step; counting time: 30 sec/step; spinner revolution time: 1 sec; incident beam path: program. divergence slit: 15 mm; Soller slit: 0.04 rad; beam mask: 15 mm; anti scatter slit: 1°; beam knife: +; Diffracted beam path: long anti scatter shield: +; Soller slit: 0.04 rad; Ni filter: +; detector: X'Celerator. Samples were prepared by spreading on a zero background sample holder.
Micro attenuated total reflectance (microATR) was used and the sample was analyzed using a suitable microATR accessory and the following measurement conditions: apparatus: Thermo Nexus 670 FTIR spectrometer; number of scans: 32; resolution: 1 cm^−1; wavelength range: 4000 to 400 cm^−1; detector: DTGS with KBr windows; beamsplitter: Ge on KBr; micro ATR accessory: Harrick Split Pea with Si crystal.
Data were collected on a TA-Instruments Q1000 MTDSC equipped with RCS cooling unit. Typically 3 mg of each compound, in a standard aluminium TA-Instrument sample pan, was heated at 10° C./min from 25 C to 300° C. A nitrogen purge at 50 mL/min was maintained over the sample.
Data were collected on a TA-Instruments Q500 thermogravimeter Typically 10 mg of each sample was transferred into a pre-weighed aluminium pan and was heated at 20° C./min from ambient temperature to 300° C. or […] unless otherwise stated.
Thermal analysis of Compound (I) as the anhydrous free base in crystalline polymorphic form B (micronized) was undertaken using TGA, DVS, XRPD analysis, IR spectroscopy and DSC as described in General Procedures. Where appropriate, a sample at ambient temperature and relative humidity (reference sample/“0 days”) was compared with samples stored at various temperatures and relative humidities (comparative samples).
The reference sample (t=0) and the comparative samples that were exposed prior to analysis to different storage conditions, were heated at a rate of 20° C./min from RT to 300° C. The TGA curve of the reference sample (t=0) is illustrated in FIG. 3 and the results for all samples are summarised below (Table 8). […] The weight loss that occurred above 180° C. was due to evaporation and decomposition of the product. Comparing this weight loss profile with those of the comparative samples in Table 8, no significant differences were observed.
The XPRD diffraction pattern of the reference sample (t=0) is illustrated in FIG. 2 and the IR trace is illustrated in FIG. 6. The diffraction pattern and IR trace were compared with those of the comparative samples (exposed to different storage conditions) and the results are summarised in Table 8. The diffraction patterns and IR traces were identical for all samples.
The reference sample (t=0) and comparative samples, previously exposed to different storage conditions, were heated at a rate of 10° C./min from 25° C. to 300° C. The DSC curve of the reference sample is illustrated in FIG. 7 and the results for all samples are summarised below (Table 8). From FIG. 7, it is evident that the reference sample melted with decomposition at 214.0° C.

[2] = Chemical stability by HPLC; assay type: physicochemical; conditions: form B micronized
Protocol: Analyses were carried out on a Waters Xbridge C18 column (3.0×150 mm; 3.5 μm) using the following operating conditions: column temperature: 40° C.; sample temperature: 5° C.; flow rate: 0.45 mL/min; injection volume: 7 μL; UV detection at 260 nm; mobile phase composition comprised of Phase A: 10 mM ammonium acetate+0.1%, v/v trifluoroacetic acid in water and Phase B: acetonitrile, using the gradient defined by the parameters below (Table 2).
The reference and comparative samples were then analyzed by HPLC using the method described in General Procedures and by visual inspection.

Cc1ccc(-n2nc(C(C)(C)C)cc2NC(=O)Nc2ccc(Oc3ccnc(Nc4ccccc4)n3)c3ccccc23)cc1 [Compound (I), 1-(3-(tert-Butyl)-1-(p-tolyl)-1H-pyrazol-5-yl)-3-(4-((2-(phenylamino)pyrimidin-4-yl)oxy)naphthalen-1-yl)urea]
physical stability ([1]; form B): good physical stability | Appearance ([1]; 1 week/70° C./75% RH): off-white | IR ([1]; 1 week/70° C./75% RH): ~Ref | XRD ([1]; 1 week/70° C./75% RH): ~Ref | Appearance ([1]; 1 week/80° C.): off-white | IR ([1]; 1 week/80° C.): ~Ref | XRD ([1]; 1 week/80° C.): ~Ref | Appearance ([1]; 4 weeks/40° C./75% RH): off-white | DSC max ([1]; 4 weeks/40° C./75% RH): 214 °C | IR ([1]; 4 weeks/40° C./75% RH): ~Ref | TGA <100° C. weight loss ([1]; 4 weeks/40° C./75% RH): 0.8% | TGA <180° C. weight loss ([1]; 4 weeks/40° C./75% RH): 0.3% | XRD ([1]; 4 weeks/40° C./75% RH): ~Ref | Appearance ([1]; 4 weeks/50° C.): off-white | DSC max ([1]; 4 weeks/50° C.): 214 °C | IR ([1]; 4 weeks/50° C.): ~Ref | TGA <100° C. weight loss ([1]; 4 weeks/50° C.): 1.3% | TGA <180° C. weight loss ([1]; 4 weeks/50° C.): 0.5% | XRD ([1]; 4 weeks/50° C.): ~Ref | Appearance ([1]; 4 weeks/RT/56% RH): off-white | DSC max ([1]; 4 weeks/RT/56% RH): 214 °C | IR ([1]; 4 weeks/RT/56% RH): ~Ref | TGA <100° C. weight loss ([1]; 4 weeks/RT/56% RH): 0.5% | TGA <180° C. weight loss ([1]; 4 weeks/RT/56% RH): 0.4% | XRD ([1]; 4 weeks/RT/56% RH): ~Ref | Appearance ([1]; 4 weeks/RT/75% RH): off-white | DSC max ([1]; 4 weeks/RT/75% RH): 214 °C | IR ([1]; 4 weeks/RT/75% RH): ~Ref | TGA <100° C. weight loss ([1]; 4 weeks/RT/75% RH): 0.9% | TGA <180° C. weight loss ([1]; 4 weeks/RT/75% RH): 0.5% | XRD ([1]; 4 weeks/RT/75% RH): ~Ref | Appearance ([1]; 4 weeks/RT/<5% RH): off-white | DSC max ([1]; 4 weeks/RT/<5% RH): 214 °C | IR ([1]; 4 weeks/RT/<5% RH): ~Ref | TGA <100° C. weight loss ([1]; 4 weeks/RT/<5% RH): 0.8% | TGA <180° C. weight loss ([1]; 4 weeks/RT/<5% RH): 0.5% | XRD ([1]; 4 weeks/RT/<5% RH): ~Ref | Appearance ([1]; T = zero): off-white | DSC max ([1]; T = zero): 214 °C | IR ([1]; T = zero): Cryst. | TGA <180° C. weight loss ([1]; T = zero): 0.6% | XRD ([1]; T = zero): Cryst. | chemical stability [2]: chemically stable | sensitivity to light [2]: some sensitivity to light was observed | Appearance ([2]; 40° C./75% RH, 1 week): off-white | Sum of impurities by HPLC ([2]; 40° C./75% RH, 1 week): 0.66% | Appearance ([2]; 40° C./75% RH, 4 weeks): off-white | Sum of impurities by HPLC ([2]; 40° C./75% RH, 4 weeks): 0.68% | Appearance ([2]; 50° C., 1 week): off-white | Sum of impurities by HPLC ([2]; 50° C., 1 week): 0.69% | Appearance ([2]; 50° C., 4 weeks): off-white | Sum of impurities by HPLC ([2]; 50° C., 4 weeks): 0.66% | Appearance ([2]; 70° C./75% RH, 1 week): off-white | Sum of impurities by HPLC ([2]; 70° C./75% RH, 1 week): 0.73% | Appearance ([2]; 80° C., 1 week): off-white | Sum of impurities by HPLC ([2]; 80° C., 1 week): 0.73% | Appearance ([2]; 0.3 day, ICH light): off-white | Sum of impurities by HPLC ([2]; 0.3 day, ICH light (700 W/m^2)): 1.44% | Appearance ([2]; RT/56% RH, 4 weeks): off-white | Sum of impurities by HPLC ([2]; RT/56% RH, 4 weeks): 0.67% | Appearance ([2]; RT/75% RH, 4 weeks): off-white | Sum of impurities by HPLC ([2]; RT/75% RH, 4 weeks): 0.67% | Appearance ([2]; RT/<5% RH, 4 weeks): off-white | Sum of impurities by HPLC ([2]; RT/<5% RH, 4 weeks): 0.67% | Appearance ([2]; T = zero): off-white | Sum of impurities by HPLC ([2]; T = zero): 0.66%
